Data as given in patent US8916183B2, “Pesticidal compositions and processes related thereto” (priority 2012, dated 2014).

How the values were obtained:
[1] = system: Corn Earworm (CEW) (Helicoverpa zea); test: Bioassay on corn earworm (CEW), 128-well diet tray assay; format: in vivo; conditions: Helicoverpa zea; corn earworm, 50 μg/cm^2; read-out: % Mortality CEW 50 μg/cm^2
Method in brief: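 Activity was scored as percent larval mortality per well, averaged across eight wells and reported on a rating scale. Diet trays (128-well) were kept at 25° C with 14:10 light-dark for five to seven days.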

[2] = system: Green Peach Aphid (GPA) (Myzus persicae); test: Bioassay on green peach aphid (GPA), foliar spray on cabbage seedlings; format: in vivo; conditions: green peach aphid, 200 ppm, read-out: % Mortality GPA 200 ppm
Method in brief: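 Cabbage seedlings (2-3 true leaves), each infested a day earlier with 20-50 wingless adult and nymph GPA, were sprayed on both leaf sides to runoff, four pots per treatment. Corrected % control was calculated against solvent-check plants.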

[3] = system: Beet Armyworm (BAW) (Spodoptera exigua); test: Bioassay on beet armyworm (BAW), 128-well diet tray assay; format: in vivo; conditions: Spodoptera exigua; beet armyworm, 50 μg/cm^2; read-out: % Mortality BAW 50 μg/cm^2

| melting point | SMILES | further results |
| --- | --- | --- |
| 219 to 222 °C | Cc1cccc(NC(=S)N/N=C/c2ccc(-c3ncn(-c4ccc(OC(F)(F)F)cc4)n3)cc2)c1C(C)C [Compound I-43] | – |
| 169 to 170 °C | CC(C)c1cc(F)c(F)cc1NC(=S)NN [Compound I-54] | – |
| 213 to 216 °C | FC(F)(F)Oc1ccc(-n2cnc(-c3ccc(/C=N/NC(=S)Nc4ccccc4C4CCCC4)cc3)n2)cc1 [Compound I-35] | – |
| 167 to 169 °C | Cc1ccc(C(C)C)c(NC(=S)NN)c1 [Compound I-46] | – |
| 163 to 167 °C | CC(C)c1cc(F)ccc1NC(=S)NN [Compound I-50] | – |
| 217 to 221 °C | CC(C)c1cc(F)c(F)cc1NC(=S)N/N=C/c1ccc(-c2ncn(-c3ccc(OC(F)(F)F)cc3)n2)cc1 [Compound I-55] | – |
| – | Cc1cccc(C)c1-n1c(-c2ccc(C(F)(F)F)cc2)cs/c1=N\N=Cc1ccc(-c2ncn(-c3ccc(OC(F)(F)F)cc3)n2)cc1 [Compound 79C] | mortality at 50 µg/cm2 [1]: 50 to 100%; mortality at 200 ppm [2]: 0 to 80%; mortality at 50 µg/cm2 [3]: 50 to 100% |
